Our source for the IC50 and inhibition values is patent US20110251379A1, “COMPOUNDS USEFUL FOR TREATING NEURODEGENERATIVE DISORDERS” (Satori Pharmaceuticals, Inc., priority 2010, published 2011).

What all share (assay type): cell-based
One assay deals with Aβ-38. Briefly: MSD Human (6E10) Ab 3-PLEX elisa, conditioned media of 2B7 cells: Aβ-38. The settings on record: Homo sapiens, Aβ-38 (superscript a). The essentials: (§1)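 Each Aβ peptide was measured by MSD 6E10 3-plex electrochemiluminescence against its own seven-point standard curve. Samples were conditioned media from 2B7 cells exposed to compound for 5 hours at 37° C with 1% DMSO. Percent-vehicle values were fitted to a 4-parameter curve to give IC50.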

The next assay relates to Aβ-40. Briefly: MSD Human (6E10) Ab 3-PLEX elisa, conditioned media of 2B7 cells: Aβ-40. The settings on record: Homo sapiens; for inhibition at 20 µM: Aβ-40, 20 μM; for IC50: Aβ-40 (superscript b). An outline of the steps: as §1
The next assay relates to Aβ-42. Briefly: MSD Human (6E10) Ab 3-PLEX elisa, conditioned media of 2B7 cells: Aβ-42. Conditions: Homo sapiens; for IC50: Aβ-42 (superscript c). An outline of the steps:
as §1

Each structure is given as a SMILES string. Read-outs that look alike come from different tables or passages of the source.

With `CC[S+]([O-])[C@@H](C1C[C@@H](C)[C@H]2C(O1)[C@H](O)[C@@]1(C)C3CC[C@H]4C(C)(C)C(O[C@H]5CN(C6COC6)CCO5)CC[C@@]45C[C@@]35CC[C@]21C)C(C)(C)O` (stereo partly shown), the IC50 in the assay on Aβ-38 (read-out: 50% reduction value) lay within 1000 to 10000 nM. The inhibition at 20 µM was 25 to 75% in the assay on Aβ-40 and 25 to 75% with Aβ-42 (Aβ-42, 20 μM).

Consider `CO[C@@H](C1C[C@@H](C)[C@H]2C(O1)[C@H](O)[C@@]1(C)C3CC[C@H]4C(C)(C)C(OC(=O)N5CCC5)CC[C@@]45C[C@@]35CC[C@]21C)C(C)(C)O` (stereo partly shown), for which the IC50 was 1000 to 10000 nM with Aβ-38 (read-out: 50% reduction value), over 10000 nM in the assay with Aβ-40 (read-out: 50% reduction value) and 1000 to 10000 nM in the assay with Aβ-42 (read-out: 50% reduction value).

Regarding `CNC(=O)O[C@H](C(C)C)C1C[C@@H](C)[C@H]2C(O1)[C@H](O)[C@@]1(C)C3CC[C@H]4C(C)(C)C(OC(=O)NC5CNC5)CC[C@@]45C[C@@]35CC[C@]21C` (stereo partly shown), the IC50 is under 1000 nM in the assay on Aβ-38 (read-out: 50% reduction value), 1000 to 10000 nM in the assay with Aβ-40 (read-out: 50% reduction value), under 1000 nM with Aβ-42 (read-out: 50% reduction value) and under 1000 nM with Aβ-42 (read-out: IC50 range).

For the compound `CCO[C@@H]([C@H]1C[C@@H](C)[C@H]2[C@H](O1)[C@H](O)[C@@]1(C)[C@@H]3CC[C@H]4C(C)(C)[C@@H](OC(=O)NC5CN(C)C5)CC[C@@]45C[C@@]35CC[C@]21C)C(C)(C)O`, the IC50 is under 1000 nM in the assay on Aβ-38 (read-out: 50% reduction value); under 1000 nM with Aβ-38 (read-out: IC50 range); under 1000 nM in the assay on Aβ-40 (read-out: 50% reduction value); 1000 to 10000 nM in the assay with Aβ-40 (read-out: IC50 range); under 1000 nM with Aβ-42 (read-out: 50% reduction value); under 1000 nM with Aβ-42 (read-out: IC50 range).

On to `CCO[C@@H]([C@H]1C[C@@H](C)[C@H]2[C@H](O1)[C@H](O)[C@@]1(C)[C@@H]3CC[C@H]4C(C)(C)[C@@H](OC5CNCCO5)CC[C@@]45C[C@@]35CC[C@]21C)C(C)(C)O` (stereo partly shown), for which the IC50 with Aβ-38 (read-out: 50% reduction value) is under 1000 nM; in the assay on Aβ-38 (read-out: IC50 range), under 1000 nM; in the assay with Aβ-40 (read-out: 50% reduction value), 1000 to 10000 nM; in the assay on Aβ-40 (read-out: IC50 range), 1000 to 10000 nM; in the assay on Aβ-42 (read-out: 50% reduction value), under 1000 nM; in the assay with Aβ-42 (read-out: IC50 range), under 1000 nM.

In the case of `CCO[C@@H]([C@H]1C[C@@H](C)[C@H]2[C@H](O1)[C@H](O)[C@@]1(C)[C@@H]3CC[C@H]4C(C)(C)[C@@H](OC5CN(C)CCO5)CC[C@@]45C[C@@]35CC[C@]21C)C(C)(C)O` (stereo partly shown), the IC50 with Aβ-38 (read-out: 50% reduction value) is under 1000 nM; in the assay with Aβ-38 (read-out: IC50 range) it was under 1000 nM; in the assay on Aβ-40 (read-out: 50% reduction value), 1000 to 10000 nM; in the assay on Aβ-40 (read-out: IC50 range), 1000 to 10000 nM; in the assay on Aβ-42 (read-out: 50% reduction value) it was under 1000 nM; with Aβ-42 (read-out: IC50 range), under 1000 nM.

For `CCO[C@@H]([C@H]1C[C@@H](C)[C@H]2[C@H](O1)[C@H](O)[C@@]1(C)[C@@H]3CC[C@H]4C(C)(C)[C@@H](OC5CN(C(=O)C(C)C)CCO5)CC[C@@]45C[C@@]35CC[C@]21C)C(C)(C)O` (stereo partly shown), the IC50 was under 1000 nM in the assay on Aβ-38 (read-out: 50% reduction value); under 1000 nM in the assay with Aβ-38 (read-out: IC50 range); 1000 to 10000 nM in the assay on Aβ-40 (read-out: 50% reduction value); 1000 to 10000 nM in the assay on Aβ-40 (read-out: IC50 range); under 1000 nM in the assay on Aβ-42 (read-out: 50% reduction value); under 1000 nM in the assay on Aβ-42 (read-out: IC50 range).

Turning to `C=C(C)CO[C@@H](C1C[C@@H](C)[C@H]2C(O1)[C@H](O)[C@@]1(C)C3CC[C@H]4C(C)(C)C(O[C@H]5CN(C6COC6)CCO5)CC[C@@]45C[C@@]35CC[C@]21C)C(C)(C)O` (stereo partly shown), the IC50 in the assay with Aβ-38 (read-out: 50% reduction value) was under 1000 nM; in the assay with Aβ-38 (read-out: IC50 range), under 1000 nM; with Aβ-40 (read-out: 50% reduction value) it was 1000 to 10000 nM; in the assay with Aβ-42 (read-out: 50% reduction value) it was under 1000 nM; in the assay with Aβ-42 (read-out: IC50 range), under 1000 nM.

As for `CC(C)CO[C@@H](C1C[C@@H](C)[C@H]2C(O1)[C@H](O)[C@@]1(C)C3CC[C@H]4C(C)(C)C(O[C@H]5CN(C6COC6)CCO5)CC[C@@]45C[C@@]35CC[C@]21C)C(C)(C)O` (stereo partly shown), the IC50 in the assay on Aβ-38 (read-out: 50% reduction value) was under 1000 nM; in the assay with Aβ-38 (read-out: IC50 range), under 1000 nM; in the assay with Aβ-40 (read-out: 50% reduction value) it was 1000 to 10000 nM; in the assay with Aβ-40 (read-out: IC50 range), 1000 to 10000 nM; in the assay with Aβ-42 (read-out: 50% reduction value) it was 1000 to 10000 nM.

In the case of `CO[C@@H]([C@H]1C[C@@H](C)[C@H]2[C@H](O1)[C@H](O)[C@@]1(C)[C@@H]3CC[C@H]4C(C)(C)[C@@H](OC5CN(C(=O)C(C)C)CCO5)CC[C@@]45C[C@@]35CC[C@]21C)C(C)(C)O` (stereo partly shown), the IC50 in the assay with Aβ-38 (read-out: 50% reduction value) was under 1000 nM; in the assay on Aβ-38 (read-out: IC50 range) it was under 1000 nM; in the assay on Aβ-40 (read-out: 50% reduction value) it was 1000 to 10000 nM; with Aβ-42 (read-out: 50% reduction value) it was under 1000 nM; in the assay with Aβ-42 (read-out: IC50 range), under 1000 nM.

With `C[C@@H]1CC([C@@H]2OCOC2(C)C)OC2[C@H]1[C@@]1(C)CC[C@@]34C[C@@]35CCC(O[C@H]3CN(C6COC6)CCO3)C(C)(C)[C@@H]5CCC4[C@]1(C)[C@H]2O` (stereo partly shown), the IC50 in the assay with Aβ-38 (read-out: 50% reduction value) is 1000 to 10000 nM; with Aβ-42 (read-out: 50% reduction value) it was over 10000 nM. This compound returned an inhibition at 20 µM in the assay with Aβ-40 of 25 to 75%.

Take `C=C(C)CO[C@@H](C1C[C@@H](C)[C@H]2C(O1)[C@H](O)[C@@]1(C)C3CC[C@H]4C(C)(C)C(O)CC[C@@]45C[C@@]35CC[C@]21C)C(C)(C)O` (stereo partly shown): the IC50 was under 1000 nM in the assay with Aβ-38 (read-out: 50% reduction value); under 1000 nM in the assay on Aβ-38 (read-out: IC50 range); 1000 to 10000 nM in the assay with Aβ-40 (read-out: 50% reduction value); 1000 to 10000 nM in the assay on Aβ-40 (read-out: IC50 range); under 1000 nM with Aβ-42 (read-out: 50% reduction value); under 1000 nM in the assay on Aβ-42 (read-out: IC50 range).

As to `CO[C@@H](C1C[C@@H](C)[C@H]2C(O1)[C@H](O)[C@@]1(C)C3CC[C@H]4C(C)(C)C(OC(=O)NC5COC5)CC[C@@]45C[C@@]35CC[C@]21C)C(C)(C)O` (stereo partly shown), the IC50 in the assay with Aβ-38 (read-out: 50% reduction value), in the assay on Aβ-42 (read-out: 50% reduction value) and in the assay on Aβ-42 (read-out: IC50 range) was under 1000 nM in each case. Also, in the assay on Aβ-40, the inhibition at 20 µM is 25 to 75%.

For `CO[C@@H](C1C[C@@H](C)[C@H]2C(O1)[C@H](O)[C@@]1(C)C3CC[C@H]4C(C)(C)C(OC(=O)NC5CN(C)C5)CC[C@@]45C[C@@]35CC[C@]21C)C(C)(C)O` (stereo partly shown), the IC50 was under 1000 nM in the assay with Aβ-38 (read-out: 50% reduction value); 1000 to 10000 nM in the assay on Aβ-38 (read-out: IC50 range); 1000 to 10000 nM with Aβ-40 (read-out: 50% reduction value); 1000 to 10000 nM with Aβ-40 (read-out: IC50 range); under 1000 nM in the assay with Aβ-42 (read-out: 50% reduction value); under 1000 nM with Aβ-42 (read-out: IC50 range).

As for `CO[C@@H](C1C[C@@H](C)[C@H]2C(O1)[C@H](O)[C@@]1(C)C3CC[C@H]4C(C)(C)C(OC(=O)NC5CNC5)CC[C@@]45C[C@@]35CC[C@]21C)C(C)(C)O` (stereo partly shown), the IC50 is under 1000 nM with Aβ-38 (read-out: 50% reduction value); 1000 to 10000 nM in the assay with Aβ-40 (read-out: 50% reduction value); 1000 to 10000 nM in the assay with Aβ-40 (read-out: IC50 range); under 1000 nM in the assay on Aβ-42 (read-out: 50% reduction value); under 1000 nM with Aβ-42 (read-out: IC50 range).

`CC(C)[C@@H](OC(=O)N1CCC1)C1C[C@@H](C)[C@H]2C(O1)[C@H](O)[C@@]1(C)C3CC[C@H]4C(C)(C)C(OC(=O)N5CCN(S(C)(=O)=O)CC5)CC[C@@]45C[C@@]35CC[C@]21C` (stereo partly shown): the IC50 with Aβ-38 (read-out: 50% reduction value) was under 1000 nM; in the assay on Aβ-38 (read-out: IC50 range), under 1000 nM; with Aβ-40 (read-out: 50% reduction value) it was 1000 to 10000 nM; with Aβ-40 (read-out: IC50 range), 1000 to 10000 nM; in the assay on Aβ-42 (read-out: 50% reduction value), under 1000 nM; with Aβ-42 (read-out: IC50 range), under 1000 nM.

Take `CC(=O)N1CCN(C(=O)OC2CC[C@]34C[C@]35CC[C@]3(C)[C@@H]6C(OC([C@H](OC(=O)N7CCC7)C(C)C)C[C@H]6C)[C@H](O)[C@@]3(C)C5CC[C@H]4C2(C)C)CC1` (stereo partly shown): the IC50 with Aβ-38 (read-out: 50% reduction value) is under 1000 nM; in the assay on Aβ-38 (read-out: IC50 range) it was under 1000 nM; with Aβ-40 (read-out: 50% reduction value), 1000 to 10000 nM; with Aβ-40 (read-out: IC50 range), 1000 to 10000 nM; in the assay with Aβ-42 (read-out: 50% reduction value) it was under 1000 nM; with Aβ-42 (read-out: IC50 range) it was under 1000 nM.

Regarding `CCNC(=O)O[C@H](C(C)C)C1C[C@@H](C)[C@H]2C(O1)[C@H](O)[C@@]1(C)C3CC[C@H]4C(C)(C)C(OC(=O)N5CCOCC5)CC[C@@]45C[C@@]35CC[C@]21C` (stereo partly shown), the IC50 in the assay with Aβ-38 (read-out: 50% reduction value) and in the assay on Aβ-42 (read-out: IC50 range) was under 1000 nM in each case. In addition, in the assay with Aβ-40, the inhibition at 20 µM was 25 to 75%.

With `CCNC(=O)O[C@H](C(C)C)C1C[C@@H](C)[C@H]2C(O1)[C@H](O)[C@@]1(C)C3CC[C@H]4C(C)(C)C(OC(N)=O)CC[C@@]45C[C@@]35CC[C@]21C` (stereo partly shown), the IC50 was under 1000 nM with Aβ-38 (read-out: 50% reduction value), 1000 to 10000 nM in the assay on Aβ-40 (read-out: 50% reduction value) and under 1000 nM in the assay with Aβ-42 (read-out: 50% reduction value).
